Earlier results, collected in patent publication US6811967B2 (The University of Manitoba, priority 2001, dated 2004).

How the values were obtained:
[1] = weak base, primary amine
[2] = Sprague-Dawley rats, same therapeutic dose (Goralski et al. 1999)
human SSAT = biological target: T1, human SSAT (Homo sapiens, UniProt P21673); settings: human SSAT expressed in E. coli (Parry et al. 1995)
T1 construct: host or cells: E. coli
T1 sequence (P21673 whole entry): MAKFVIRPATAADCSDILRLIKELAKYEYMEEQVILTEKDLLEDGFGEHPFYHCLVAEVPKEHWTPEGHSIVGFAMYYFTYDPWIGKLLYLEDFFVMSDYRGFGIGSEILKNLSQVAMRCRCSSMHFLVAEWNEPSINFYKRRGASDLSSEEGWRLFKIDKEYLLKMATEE

| SMILES | pKa [1] | urinary excretion of acetylamantadine [2] | acetylation by SSAT (human SSAT) |
| --- | --- | --- | --- |
| NC12CC3CC(CC(C3)C1)C2 [amantadine, 1-adamantanamine] | 10.1 | did not excrete acetylamantadine |  |
| N=C(N)NCCCCCCC(=O)NC(O)C(=O)NCCCCNCCCN (centres unmarked) [1-deoxyspergualin] |  |  | acetylated by SSAT |
| NCCCNCCS [WR1065, S-2-(3-aminopropylamino) ethanethiol] |  |  | acetylated by SSAT |
| CCCCNCCCN [N-(n-butyl)-1,3-diaminopropane] |  |  | acetylated by SSAT |
